How the values were obtained:
E. coli = conditions: final concentration 1M; positive control for cell death
Protocol: For experiments in which bacteria were applied to the resonator devices, cultures were harvested at late log to early stationary phase. Cells were centrifuged at 5000× g for 5 minutes then resuspended in either fresh LB medium or phosphate-buffered saline. For antibiotic treatment, 200 µg/ml kanamycin was added to cells in the sensor devices.

E. coli MG1655 = experiment: Dose response growth curve analysis (OD600), MG1655; assay type: cell-based
Protocol: To perform an initial test of the sensors' ability to detect response of bacteria to antibiotics, common molecular cloning strains and one pseudo-wild-type strain of E. coli were selected. TOP10, DH5α, and MG1655 strains are sensitive to kanamycin, ampicillin, or chloramphenicol in the absence of a plasmid conferring resistance. Dose response growth curve analysis was performed to determine appropriate concentrations of antibiotic to use with each strain and plasmid combination.

[Na+].[OH-] [sodium hydroxide]
lysis of bacteria (E. coli): Complete lysis

NC[C@H]1O[C@H](O[C@H]2[C@H](O)[C@@H](O[C@H]3O[C@H](CO)[C@@H](O)[C@H](N)[C@H]3O)[C@H](N)C[C@@H]2N)[C@H](O)[C@@H](O)[C@@H]1O [kanamycin]
minimum concentration that completely blocked growth (E. coli MG1655; E. coli MG1655 without plasmid, full 24 hr culture time, OD600, FIG. 17): 25 µg/mL

CC1(C)S[C@@H]2[C@H](NC(=O)[C@H](N)c3ccccc3)C(=O)N2[C@H]1C(=O)O [ampicillin]
concentration at which growth inhibition was observed (E. coli MG1655; E. coli MG1655 cultures, varying doses, OD600, FIG. 16B): more than 1.56 μg/mL
